Read-outs that look alike come from different tables or passages of the source.
Key:
[1] = test system: NBD-labelled MBP (cysteine mutation at Ser337); type: binding, Escherichia coli
MBP I329W mutant = MBP I329W mutant (Escherichia coli, UniProt P0AEX9, I355W); test: Maltose fluorescence titration, peak wavelength of tryptophan fluorescence; type: binding; settings: I329W mutant relative to wild-type protein

Compound | increase in maltose Kd;app ([1]; 100 g/L BSA, NBD fluorescence) [fold] | weakening of maltose affinity by the NBD dye ([1]; monitored by NBD fluorescence intensity) [fold] | weakening of maltose affinity by the NBD dye ([1]; monitored by peak wavelength of tryptophan fluorescence) [fold] | increase in maltose binding affinity (MBP I329W mutant) [fold]
bovine serum albumin [BSA] | 16 | – | – | –
OC[C@H]1O[C@H](O[C@H]2[C@H](O)[C@@H](O)C(O)O[C@@H]2CO)[C@H](O)[C@@H](O)[C@@H]1O (mixture of isomers) [maltose] | – | 24 | 5 | 100
